The source of these data is ChEMBL document CHEMBL1135600, “Novel tricyclic-alpha-alkyloxyphenylpropionic acids: dual PPARalpha/gamma agonists with hypolipidemic and antidiabetic activity” (J Med Chem, 2002).

The target of data set [1] is T1, Peroxisome proliferator-activated receptor alpha (Homo sapiens, UniProt Q07869).
T1 sequence (Q07869 whole entry): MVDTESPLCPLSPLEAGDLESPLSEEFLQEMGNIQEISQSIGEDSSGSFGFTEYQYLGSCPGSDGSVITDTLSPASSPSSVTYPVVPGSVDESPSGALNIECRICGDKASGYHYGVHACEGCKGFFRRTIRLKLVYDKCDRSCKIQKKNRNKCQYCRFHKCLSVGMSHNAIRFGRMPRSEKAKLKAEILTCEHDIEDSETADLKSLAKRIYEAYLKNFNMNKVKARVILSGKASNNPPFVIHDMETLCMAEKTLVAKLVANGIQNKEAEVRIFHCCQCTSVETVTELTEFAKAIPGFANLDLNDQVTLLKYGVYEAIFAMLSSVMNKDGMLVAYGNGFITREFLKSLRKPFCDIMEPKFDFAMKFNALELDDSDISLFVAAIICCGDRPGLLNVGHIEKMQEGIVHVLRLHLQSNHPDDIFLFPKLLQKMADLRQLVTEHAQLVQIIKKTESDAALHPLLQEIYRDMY
Description: In vitro transactivation using receptor transactivation assay against hPPAR alpha. It counts as functional.

The target of data set [2] is T2, Peroxisome proliferator-activated receptor delta (Homo sapiens, UniProt Q03181).
T2 sequence (Q03181 whole entry): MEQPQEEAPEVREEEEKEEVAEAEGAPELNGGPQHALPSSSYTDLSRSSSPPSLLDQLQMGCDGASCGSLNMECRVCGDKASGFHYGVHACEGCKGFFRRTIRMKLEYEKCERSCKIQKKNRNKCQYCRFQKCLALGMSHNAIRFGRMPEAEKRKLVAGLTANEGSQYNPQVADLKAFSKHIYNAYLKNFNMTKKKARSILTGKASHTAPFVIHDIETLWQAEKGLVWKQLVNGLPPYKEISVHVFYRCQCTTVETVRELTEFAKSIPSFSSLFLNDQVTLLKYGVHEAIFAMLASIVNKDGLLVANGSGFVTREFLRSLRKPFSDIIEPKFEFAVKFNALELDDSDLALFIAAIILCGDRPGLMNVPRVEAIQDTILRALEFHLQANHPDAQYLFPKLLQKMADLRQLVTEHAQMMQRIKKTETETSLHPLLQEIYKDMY
Description: In vitro transcriptional activation of hPPAR delta. Format: functional.

The species entered for data set [3] is Mus musculus. Description: Effective dose which produces the desired nonfasting insuline levels after 7 days in 50% of the treated male db/db mice. Format: functional. The following applies: 168 h.
A short description of data set [4]: Maximum plasma concentration after oral administration at a dose 2.2 mg/kg in rat. It counts as ADME, organism-based. Also noted: dose 2.2 mg/kg, route oral.
Data set [5] is described as follows: Area under blood glucose time curve after OGTT on the 9th day of treatment. It counts as ADME, tissue-based.
Data set [6] can be described thus: Clearance after oral administration in rat. Conditions: in vivo. It counts as ADME, organism-based.
Data set [7] is described as follows: Area under plasma concentration time curve after oral administration at a dose 2.2 mg/kg in rat. It counts as ADME, organism-based. Further details: dose 2.2 mg/kg, route oral.
Data set [8] can be described thus: Oral half life was reported in rat. It counts as ADME, organism-based. Conditions: in vivo.
Data set [9] is described as follows: Oral bioavailability in rat. It counts as ADME, organism-based. The following applies: in vivo.
Data set [10] is filed under the species Mus musculus. Description: Effective dose which produces the desired nonfasting blood glucose levels after 7 days in 50% of the treated mice. Format: functional. Conditions: 168 h.
A short description of data set [11]: Volume of distribution during steady state in rat. It counts as ADME, organism-based. The following applies: in vivo, read-out: Vss.
The species named for data set [12] is Mus musculus. Description: Maximum achieved insulin reduction relative to vehicle treated control group. It counts as functional.
The species named for data set [13] is Mus musculus. In words: Effective dose which produces the desired nonfasting triglyceride levels after 7 days in 50% of the treated male db/db mice. The following applies: 168 h. It counts as functional.
For data set [14], the species on record is Mus musculus. Description: Maximum achieved triglycerides reduction relative to vehicle treated control group. It counts as functional.
For data set [15], the target named is T3, Peroxisome proliferator-activated receptor gamma (Homo sapiens, UniProt P37231).
T3 sequence (P37231 whole entry): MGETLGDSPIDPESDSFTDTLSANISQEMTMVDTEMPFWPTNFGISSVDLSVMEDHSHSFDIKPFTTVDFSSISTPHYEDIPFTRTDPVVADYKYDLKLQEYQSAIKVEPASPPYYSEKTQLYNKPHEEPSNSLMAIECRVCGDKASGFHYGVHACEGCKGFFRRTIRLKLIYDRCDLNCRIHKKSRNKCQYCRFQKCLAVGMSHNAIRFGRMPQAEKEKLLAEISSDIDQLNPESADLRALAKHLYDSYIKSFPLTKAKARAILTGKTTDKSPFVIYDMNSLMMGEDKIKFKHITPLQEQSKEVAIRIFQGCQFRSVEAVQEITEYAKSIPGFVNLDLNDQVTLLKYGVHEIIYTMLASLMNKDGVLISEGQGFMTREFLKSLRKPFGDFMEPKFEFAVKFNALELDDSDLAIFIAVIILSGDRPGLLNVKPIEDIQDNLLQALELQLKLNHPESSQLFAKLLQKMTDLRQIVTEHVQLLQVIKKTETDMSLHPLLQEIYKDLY
Description: In vitro transactivation using receptor transactivation assay against hPPAR gamma

Take `CCCCC[C@H](O)/C=C/[C@@H]1[C@H]2C/C(=C\CCCC(=O)O)C[C@H]2C[C@H]1O` [CARBACYCLIN]: the EC50 in [1] was 340 nM; in data set [2] it was 2410 nM.

As to `CCO[C@@H](Cc1ccc(OCCn2c3ccccc3c3ccncc32)cc1)C(=O)O`, the ED50 in data set [3] was determined as 7.74 mg/kg; in data set [10], 0.33 mg/kg; in data set [13] it was 2.68 mg/kg. This compound gave a Cmax in data set [4] of 527 ng/mL. Further, the EC50 in data set [1] was 140 nM; in [15], 11 nM. The “AUC ED50” value in data set [5] stood at 3.32 mg/kg. Further, the CL/F in data set [6] is 12.7 mL/min/kg. This compound also showed an AUC in data set [7] of 1330 ng·h/mL. This compound also displayed a half-life in data set [8] of 2.7 h. In data set [9], this compound had a bioavailability of 61%. The Vd in data set [11] stood at 0.88 L/kg. Moreover, the figures for the Max reduction in data set [12] and in data set [14] were 77% and 50%, respectively.

As a reminder, the EC50 is the concentration needed to bring the measured effect to its halfway point. A high value points to a less potent agent. As a reminder, the ED50 is the dose that gives a 50% effect, or the effect in half of the subjects. High values mean a need for a large dose, low ones an effect at a small dose. By Cmax is commonly meant the highest concentration seen after dosing. A word on the CL/F: it is clearance divided by bioavailability, as obtained after extravascular dosing. By AUC is commonly meant concentration integrated over time. High values mean high exposure, low ones low exposure. Broadly, the half-life is how long it takes for the measured level to halve. The low end stands for rapid decline, the high end for slow decline. One may read the bioavailability as the share of a dose that reaches the circulation, judged against a reference dose that is usually intravenous. A low value points to poor availability.
